# Measured values published in ChEMBL document CHEMBL4732191, “Synthesis of novel potent cytotoxicy podophyllotoxin-naphthoquinone compounds via microwave-assited multicomponent domino reactions” (Bioorg Med Chem Lett, 2021).
# Experiments:
# [1] = system: KB; assay: Cytotoxicity against human KB cells; assay type: functional, cell-based
# [2] = system: HEK293; assay: Cytotoxicity against human HEK293 cells; assay type: cell-based
# [3] = system: HepG2; assay: Cytotoxicity against human HepG2 cells; assay type: functional, cell-based
# [4] = system: MCF7; assay: Cytotoxicity against human MCF7 cells; assay type: functional, cell-based
# [5] = Selectivity index, ratio of IC50 for human HEK293 cells to IC50 for human HepG2 cells; assay type: toxicity; conditions: HEK293 cells and HepG2 cells, read-out: Ratio IC50
# [6] = system: SK-LU-1; assay: Cytotoxicity against human SK-LU-1 cells; assay type: functional, cell-based
# [7] = Selectivity index, ratio of IC50 for human HEK293 cells to IC50 for human SK-LU-1 cells
SMILES,IC50 [1] [nM],IC50 [2] [nM],IC50 [3] [nM],IC50 [4] [nM],selectivity ratio [5],IC50 [6] [nM],Ratio IC50 [7]
COc1cccc(C2C3=C(COC3=O)NC3=C2C(=O)c2ccccc2C3=O)c1 (stereo not drawn),1230,9350,460,> 2500,≥ 200,< 40,>=200
O=C1OCC2=C1C(c1ccc(Br)cc1)C1=C(N2)C(=O)c2ccccc2C1=O (stereo not drawn),2140,8270,1500,> 2500,,450,
O=C1OCC2=C1C(c1cccc([N+](=O)[O-])c1)C1=C(N2)C(=O)c2ccccc2C1=O (stereo not drawn),1160,1470,< 39,2190,≥ 200,< 39,>=200
Cc1ccc(C2C3=C(COC3=O)NC3=C2C(=O)c2ccccc2C3=O)cc1 (stereo not drawn),> 2500,21600,2240,> 2500,,1650,
Cc1c2ccncc2c(C)c2c1[nH]c1ccccc12 [ELLIPTECINE],1750,1690,1660,1580,,1540,
COc1cc(C2C3=C(COC3=O)NC3=C2C(=O)c2ccccc2C3=O)ccc1O (stereo not drawn),1900,1410,410,> 2500,,410,
O=C1OCC2=C1C(c1ccc(Cl)cc1)C1=C(N2)C(=O)c2ccccc2C1=O (stereo not drawn),1460,5890,1350,> 2500,,500,
COc1ccc(C2C3=C(COC3=O)NC3=C2C(=O)c2ccccc2C3=O)cc1 (stereo not drawn),880,8170,2060,> 2500,,880,
O=C1OCC2=C1C(c1ccc3c(c1)C(=O)OC3)C1=C(N2)C(=O)c2ccccc2C1=O (stereo not drawn),1860,4780,470,> 2500,,80,
O=C1OCC2=C1C(c1ccccc1[N+](=O)[O-])C1=C(N2)C(=O)c2ccccc2C1=O (stereo not drawn),2340,9950,> 2500,> 2500,,2220,
O=C1OCC2=C1C(c1ccc(C(F)(F)F)cc1)C1=C(N2)C(=O)c2ccccc2C1=O (stereo not drawn),800,7590,1240,> 2500,,510,
O=C1OCC2=C1C(c1ccccc1)C1=C(N2)C(=O)c2ccccc2C1=O (stereo not drawn),1540,1340,< 44,1980,≥ 200,< 44,>=200
O=C1OCC2=C1C(c1ccc3ccccc3c1)C1=C(N2)C(=O)c2ccccc2C1=O (stereo not drawn),> 2500,7610,1680,> 2500,,1020,
O=C1OCC2=C1C(c1cccc3ccccc13)C1=C(N2)C(=O)c2ccccc2C1=O (stereo not drawn),> 2500,14700,> 2500,> 2500,,> 2500,
O=C1OCC2=C1C(c1ccccc1F)C1=C(N2)C(=O)c2ccccc2C1=O (stereo not drawn),1190,10300,420,> 2500,,280,
O=C1OCC2=C1C(c1cccc(Br)c1)C1=C(N2)C(=O)c2ccccc2C1=O (stereo not drawn),1710,7200,< 36,> 2500,≥ 200,< 36,>=200
O=C1OCC2=C1C(c1ccc(F)cc1)C1=C(N2)C(=O)c2ccccc2C1=O (stereo not drawn),2160,5350,440,> 2500,,280,
